Counter-ions that a name gives are not always drawn.

The IC50 is the concentration at which inhibition is half-maximal.

The target of the experiment is CGRP receptor (Homo sapiens, UniProt O60894+Q16602). Kind of experiment: CGRP radioligand binding assay ([125I]-CGRP displacement, SK-N-MC homogenate). Further details: endogenous in cells; host or cells: SK-N-MC cells (homogenate/membrane pellet). The following applies: displacement of [125I]-CGRP, room temperature 2 h. As to the method: CGRP Binding Assay. Tissue Culture. SK—N-MC cells were grown at 37° C. in 5% CO2 as a monolayer in medium consisting of MEM with Earle's salts and L-glutamine (Gibco) supplemented with 10% fetal bovine serum (Gibco). Cell Pellets. The cells were rinsed twice with phosphate-buffered saline (155 mM NaCl, 3.3 mM Na2HPO4, 1.1 mM KH2PO4, pH 7.4), and incubated for 5-10 min. at 4° C. in hypotonic lysis buffer consisting of 10 mM Tris (pH 7.4) and 5 mM EDTA. The cells were transferred from plates to polypropylene tubes (16×100 mm) and homogenized using a polytron. Homogenates were centrifuged at 32,000×g for 30 min. The pellets were resuspended in cold hypotonic lysis buffer with 0.1% mammalian protease inhibitor cocktail (Sigma) and assayed for protein concentration. The SK—N-MC homogenate was then aliquoted and stored at −80° C. until needed.
Chain of CGRP receptor (Q16602 23-461): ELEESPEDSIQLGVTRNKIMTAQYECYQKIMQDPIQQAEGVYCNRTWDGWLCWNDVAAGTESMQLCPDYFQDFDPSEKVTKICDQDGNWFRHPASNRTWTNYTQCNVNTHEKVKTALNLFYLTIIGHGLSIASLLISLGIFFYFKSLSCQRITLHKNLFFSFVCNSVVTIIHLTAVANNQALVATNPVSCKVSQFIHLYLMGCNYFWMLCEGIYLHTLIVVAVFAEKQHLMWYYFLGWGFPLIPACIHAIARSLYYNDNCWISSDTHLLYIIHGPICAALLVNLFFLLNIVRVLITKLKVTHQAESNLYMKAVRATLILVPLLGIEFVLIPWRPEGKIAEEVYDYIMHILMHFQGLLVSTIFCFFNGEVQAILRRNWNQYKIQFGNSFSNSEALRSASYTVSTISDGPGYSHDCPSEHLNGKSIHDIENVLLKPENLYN
Chain of CGRP receptor (O60894 27-148): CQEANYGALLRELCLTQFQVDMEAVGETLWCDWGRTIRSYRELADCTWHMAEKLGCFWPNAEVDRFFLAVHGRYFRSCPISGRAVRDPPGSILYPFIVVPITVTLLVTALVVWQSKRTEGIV
Radioligand Binding Assay. The compounds of invention were solubilized and carried through serial dilutions using 100% DMSO. Aliquots from the compound serial dilutions were further diluted 25 fold into assay buffer (50 mM Tris-Cl pH 7.5, 5 mM MgCl2, 0.005% Triton X-100) and transferred (volume 50 μl) into 96 well assay plates. [^125I]-CGRP (Amersham Biosciences) was diluted to 60 pM in assay buffer and a volume of 50 μl was added to each well. SK—N-MC pellets were thawed, diluted in assay buffer with fresh 0.1% mammalian protease inhibitor cocktail (Sigma), and homogenized again. SK—N-MC homogenate (5 μg/well) was added in a volume of 100 μl. The assay plates were then incubated at room temperature for 2 h. Assays were stopped by addition of excess cold wash buffer (20 mM Tris-Cl pH 7.5, 0.1% BSA) immediately followed by filtration over glass fiber filters (Whatman GF/B) previously soaked in 0.5% PEI. Non-specific binding was defined with 1 μM beta-CGRP. Protein bound radioactivity was determined using a gamma or scintillation counter. The IC50 was defined as the concentration of a compound of invention required to displace 50% of radioligand binding.
On the technique in general: Loss of bound radioactivity is the signal in a displacement assay; it reports binding, not function.
Consider `O=C(C[C@@H]1Cc2ccc3[nH]ncc3c2CN(Cc2ccccc2)C1=O)N1CCC(N2Cc3ccccc3NC2=O)CC1` [Example 38, (S)-9-Benzyl-7-(2-oxo-2-(4-(2-oxo-1,2-dihydroquinazolin-3(4H)-yl)piperidin-1-yl)ethyl)-6,7,9,10-tetrahydroazepino[3,4-e]indazol-8(3H)-one], for which the IC50 lay in the range of 100 to 1000 nM.

As for `CC(C)(C)CN1Cc2c(cc(Cl)c3[nH]ncc23)C[C@@H](CC(=O)N2CCC(c3nc4ccccc4[nH]c3=O)CC2)C1=O` [Example 48, (S)-4-Chloro-9-neopentyl-7-(2-oxo-2-(4-(3-oxo-3,4-dihydroquinoxalin-2-yl)piperidin-1-yl)ethyl)-6,7,9,10-tetrahydroazepino[3,4-e]indazol-8(3H)-one], the IC50 was 10 to 100 nM.

In turn, `O=C(C[C@@H]1Cc2cc(Cl)c3[nH]ncc3c2CN(Cc2ccncc2)C1=O)N1CCC(c2cc3cccc(F)c3[nH]c2=O)CC1` [Example 51, (S)-4-Chloro-7-(2-(4-(8-fluoro-2-oxo-1,2-dihydroquinolin-3-yl)piperidin-1-yl)-2-oxoethyl)-9-(pyridin-4-ylmethyl)-6,7,9,10-tetrahydroazepino[3,4-e]indazol-8(3H)-one] came in with an IC50 of 0.1 to 10 nM.

As to `Cc1cc2c(cc1N)CN(Cc1ccccc1)C(=O)[C@H](NC(=O)N1CCC(N3Cc4ccccc4NC3=O)CC1)C2` [Example 55, (R)-N-(8-Amino-2-benzyl-7-methyl-3-oxo-2,3,4,5-tetrahydro-1H-benzo[c]azepin-4-yl)-4-(2-oxo-1,2-dihydroquinazolin-3(4H)-yl)piperidine-1-carboxamide trifluoroacetate], the IC50 is 100 to 1000 nM.

Molecule `Cc1c(N)ccc2c1CN(Cc1ccccc1)C(=O)[C@H](NC(=O)N1CCC(N3Cc4ccccc4NC3=O)CC1)C2` [Example 56, trifluoroacetate] showed an IC50 of 100 to 1000 nM.

As for `O=C(N[C@@H]1Cc2ccc3[nH]ncc3c2CN(C2CCNC2)C1=O)N1CCC(N2Cc3ccccc3NC2=O)CC1` (stereo partly drawn) [Example 63, 4-(2-oxo-1,2-dihydroquinazolin-3(4H)-yl)-N-((R)-8-oxo-9-(pyrrolidin-3-yl)-3,6,7,8,9,10-hexahydroazepino[3,4-e]indazol-7-yl)piperidine-1-carboxamide], the IC50 fell in the range of 100 to 1000 nM.

For `CC(C)(C)CN1Cc2c(ccc3[nH]ncc23)C[C@@H](CCN2CCC(N3Cc4ccccc4NC3=O)CC2)C1=O` [Example 64, (S)-9-neopentyl-7-(2-(4-(2-oxo-1,2-dihydroquinazolin-3(4H)-yl)piperidin-1-yl)ethyl)-6,7,9,10-tetrahydroazepino[3,4-e]indazol-8(3H)-one], the IC50 is more than 1000 nM.

With `CC(C)(C)CN1Cc2c(ccc3[nH]ncc23)C[C@@H](NC(=O)N2CCC(c3cc(-c4ccccc4)no3)CC2)C1=O` [Example 65, (R)-N-(9-neopentyl-8-oxo-3,6,7,8,9,10-hexahydroazepino[3,4-e]indazol-7-yl)-4-(3-phenylisoxazol-5-yl)piperidine-1-carboxamide], the IC50 was more than 1000 nM.

In the case of `CC(C)(C)CN1Cc2c(ccc3[nH]ncc23)C[C@H](CC(=O)N2CCC(N3Cc4ccccc4NC3=O)CC2)C1=O` [Example 66, 9-(2,2-dimethyl-propyl)-7-(R)-{2-oxo-2-[4-(2-oxo-1,4-dihydro-2H-quinazolin-3-yl)-piperidin-1-yl]-ethyl}-6,7,9,10-tetrahydro-3H-2,3,9-triaza-cyclohepta[e]inden-8-one], the IC50 is 10 to 100 nM.

For `CC(C)(C)CN1Cc2c(ccc3[nH]ncc23)C[C@@H](NC(=O)N2CCC(C3Cc4ccccc4NC3=O)CC2)C1=O` (stereo partly drawn) [Example 67, N-((R)-9-neopentyl-8-oxo-3,6,7,8,9,10-hexahydroazepino[3,4-e]indazol-7-yl)-4-(2-oxo-1,2,3,4-tetrahydroquinolin-3-yl)piperidine-1-carboxamide], the IC50 is 10 to 100 nM.

For the molecule `CC(C)(C)CN1Cc2c(ccc3[nH]ncc23)C[C@@H](NC(=O)N2CCN(C3Cc4ccccc4NC3=O)CC2)C1=O` (stereo partly drawn) [Example 68, N-((R)-9-Neopentyl-8-oxo-3,6,7,8,9,10-hexahydroazepino[3,4-e]indazol-7-yl)-4-(2-oxo-1,2,3,4-tetrahydroquinolin-3-yl)piperazine-1-carboxamide], the IC50 lay within 100 to 1000 nM.

In the case of `CC(C)(C)CN1Cc2c(ccc3[nH]ncc23)C[C@@H](NC(=O)N2CCC(N3Cc4ccccc4CC3=O)CC2)C1=O` [Example 69, (R)-N-(9-Neopentyl-8-oxo-3,6,7,8,9,10-hexahydroazepino[3,4-e]indazol-7-yl)-4-(3-oxo-3,4-dihydroisoquinolin-2(1H)-yl)piperidine-1-carboxamide], the IC50 was 10 to 100 nM.

Take `CC(C)(C)CN1Cc2c(ccc3[nH]ncc23)C[C@@H](CC(=O)N2CCC3(CC2)NC(=O)Nc2ccccc23)C1=O` [Example 71, 1-[[7-(S)-9-(2,2-Dimethylpropyl)-3,6,7,8,9,10-hexahydro-8-oxoazepino[3,4-e]indazol-7-yl]acetyl]-spiro[piperidine-4,4′(1′H)-quinazolin]-2′(3′H)-one]: the IC50 is 100 to 1000 nM.

As for `CC(C)(C)CN1Cc2c(ccc3[nH]ncc23)C[C@@H](CC(=O)N2CCC(c3cnc4ccccc4c3)CC2)C1=O` [Example 72, 1-[[7-(S)-9-(2,2-Dimethylpropyl)-3,6,7,8,9,10-hexahydro-8-oxoazepino[3,4-e]indazol-7-yl]acetyl]-4-(3-quinolinyl)piperidine], the IC50 is more than 1000 nM.

`COc1cc2ccccc2cc1C1CCN(C(=O)C[C@@H]2Cc3cc(Cl)c4[nH]ncc4c3CN(CC(C)(C)C)C2=O)CC1` [Example 73, 1-[[7-(S)-4-choro-9-(2,2-Dimethylpropyl)-3,6,7,8,9,10-hexahydro-8-oxoazepino[3,4-e]indazol-7-yl]acetyl]-4-(3-methoxy-2-naphthalenyl)piperidine] came in with an IC50 of more than 1000 nM.

In turn, `CC(C)(C)CN1Cc2c(cc(Cl)c3[nH]ncc23)C[C@@H](CC(=O)N2CCC(c3cc4ccccc4cc3O)CC2)C1=O` [Example 74, 1-[[7-(S)-4-choro-9-(2,2-Dimethylpropyl)-3,6,7,8,9,10-hexahydro-8-oxoazepino[3,4-e]indazol-7-yl]acetyl]-4-(3-hydroxy-2-naphthalenyl)piperidine] registered an IC50 of more than 1000 nM.

On to `O=C(C[C@@H]1Cc2cc(Cl)c3[nH]ncc3c2CN(CC(F)(F)F)C1=O)N1CCC(N2Cc3ccccc3NC2=O)CC1` [Example 75, 1-[[(7S)-4-Chloro-3,6,7,8,9,10-hexahydro-8-oxo-9-(2,2,2-trifluoroethly)azepino[3,4-e]indazol-7-yl]acetyl]-4-(1,4-dihydro-2-oxo-3(2H)-quinazolinyl)-piperidine], for which the IC50 is 0.1 to 10 nM.

As for `CC(C)(C)CN1Cc2c(cc(Cl)c3[nH]ncc23)C[C@@H](CC(=O)N2CCC(C3C(=O)c4ccccc4NS3(=O)=O)CC2)C1=O` (stereo partly drawn) [Example 76, 1-[[7-(S)-4-choro-9-(2,2-Dimethylpropyl)-3,6,7,8,9,10-hexahydro-8-oxoazepino[3,4-e]indazol-7-yl]acetyl]-4-(3,4-dihydro-2,2-dioxido-4-oxo-1H-2,1-benzothiazin-3-yl)piperidine], the IC50 lay in the range of 10 to 100 nM.

Regarding `CC(C)(C)CN1Cc2c(cc(Cl)c3[nH]ncc23)C[C@@H](CC(=O)N2CCC(N3Cc4cccnc4NC3=O)CC2)C1=O` [Example 78], the IC50 lay in the range of 0.1 to 10 nM.

In the case of `CC(C)(C)CN1Cc2c(cc(Cl)c3[nH]ncc23)C[C@@H](CC(=O)N2CCC(c3cc4cccnc4[nH]c3=O)CC2)C1=O` [Example 79, 1-[[(7S)-4-chloro-9-(2,2-dimethylpropyl)-3,6,7,8,9,10-hexahydro-8-oxoazepino[3,4-e]indazol-7-yl]acetyl]-4-(1,2-dihydro-2-oxo-1,8-naphthyridin-3-yl)-piperidine], the IC50 fell in the range of 0.1 to 10 nM.

Regarding `O=C(C[C@@H]1Cc2cc(Cl)c3[nH]ncc3c2CN(Cc2ccncc2)C1=O)N1CCC(c2cc3ccccc3c[n+]2[O-])CC1` [Example 82], the IC50 lay in the range of 0.1 to 10 nM.

As for `O=C(C[C@@H]1Cc2cc(Cl)c3[nH]ncc3c2CN(Cc2ccncc2)C1=O)N1CCC(c2ccc(-c3ccccc3)c[n+]2[O-])CC1` [Example 83, (S)-1-[[(7S)-4-chloro-3,6,7,8,9,10-hexahydro-8-oxo-9-(4-pyridinylmethyl)azepino[3,4-e]indazol-7-yl]acetyl]-4-(1-oxido-5-phenyl-2-pyridinyl)-piperidine], the IC50 lay within 100 to 1000 nM.

Take `CC(C)(C)CN1Cc2c(cc(Cl)c3[nH]ncc23)C[C@@H](CC(=O)N2CCC(c3ccc(-c4ccccc4)c[n+]3[O-])CC2)C1=O` [Example 84, (S)-1-[[(7S)-4-chloro-9-(2,2-dimethylpropyl)-3,6,7,8,9,10-hexahydro-8-oxoazepino[3,4-e]indazol-7-yl]acetyl]-4-(1-oxido-5-phenyl-2-pyridinyl)-piperidine]: the IC50 lay within 100 to 1000 nM.

These data come from US7384931B2, “Constrained compounds as CGRP-receptor antagonists” (Bristol-Myers Squibb Company, priority 2004, dated 2008).
